Measurements: US5114960A, “Substituted isoxazole derivatives” (Hoffmann-La Roche Inc., priority 1989, dated 1992)

Tested on: IL-1-dependent PGE^2
Test: IL-1-dependent PGE2 inhibition test in human rheumatoid synovial cell lines
Type: cell-based
Details: recombinant human IL-1 alpha 0.1 ng/ml, 7 hours, 37° C., read-out: IC50 (concentration reducing PGE2 release to 50% of IL-1-stimulated control values)
Description: IL-1-dependent PGE ^2 inhibition test:
Human rheumatoid synovial cell lines, prepared by the enzymatic dissociation of fresh rheumatoid tissue, were maintained by culture in Dulbecco's modified Eagle medium containing 25 mM HEPES, 10% foetal calf serum, 100 units of penicillin per ml and 100 μg of streptomycin per ml (culture medium). Standard incubation conditions were 37° C. in a water-saturated atmosphere containing 95% air and 5% CO2.
Semi-confluent cultures at the third to eighteenth passage were detached by trypsin treatment and resuspended in culture medium at […]. The cell suspension was distributed to 200 μl aliquots into the wells of a 96-well microtitration plate and incubated for 18 hours at 37° C. to allow adhesion of the cells.
Test substances were dissolved in equimolar sodium hydroxide solution and double-dilution series were prepared in sterile water. If the test substances is a compound of formula I in which one of R^1 and R^2 is alkoxycarbonyl and the other hydrogen, it is treated with hog liver esterase prior to carrying out the test. The medium was aspirated from the microcultures of the synovial cells. 170 μl of culture medium were added and the cultures were treated with 20 μl of test substances and then 10 μl of recombinant human IL-1 alpha culture medium to give a final concentration of 0.1 ng/ml. All treatments were carried out in quadruplet. After incubation for 7 hours, samples of the culture media were removed and stored at -20° C. prior to assay for PGE2. The PGE2 content was determined using a [^I 125]R1A kit obtained from NEN Products.
PGE2 concentration detected in unstimulated controls were subtracted from values determined in all stimulated cultures and results were transformed to percent of IL-1-stimulated control PGE2 values. IC50 values were determined by interpolation as those concentrations reducing PGE2 release to 50% of IL-1-stimulated control values.

Row | SMILES | IC50 [nM]
1 | CCC1(C(=O)O)C2CCc3c(-c4ccc(Cl)cc4)noc3C21 (stereo not drawn) [Compound F, endo-3-(4-Chlorophenyl)-6-ethyl-5,5a,6,6a-tetrahydro-4H-cyclopropa[g]-1,2-benzisoxazole-6-carboxylic acid] | 700
2 | O=C(O)C1CCc2onc(-c3ccc(Cl)cc3)c2CC1 (single isomer, unassigned; (+)) [Compound A, (+)-3-(4-Chlorophenyl)-5,6,7,8-tetrahydro-4H-cyclohept[d]isoxazole-6-carboxylic acid] | 2000
3 | O=C(O)[C@H]1[C@H]2CCc3c(-c4ccc(Cl)cc4)noc3[C@H]21 (relative stereo) [Compound C, endo-3-(4-Chlorophenyl)-5,5a,6,6a-tetrahydro-4H-cyclopropa[g]-1,2-benzisoxazole-6-carboxylic acid] | 500

More lines, now with the values ahead:

Row | IC50 [nM] | SMILES
4 | 40 | C[C@H]1CC[C@H](C(=O)O)Cc2onc(-c3ccc(Cl)cc3)c21 (relative stereo) [Compound E, trans-3-(4-Chlorophenyl)-5,6,7,8-tetrahydro-4-methyl-4H-cyclohept[d]isoaxazole-7-carboxylic acid]
5 | 8000 | CO[C@@H]1CC[C@@H](C(=O)O)Cc2onc(-c3ccc(Cl)cc3)c21 (relative stereo) [Compound D, trans-3-(4-Chlorophenyl)-5,6,7,8-tetrahydro-4-methoxy-4H-cyclohept[d]isoxazole-7-carboxylic acid]
6 | 15000 | O=C(O)C1CCCc2c(-c3ccc(Cl)cc3)noc2C1 (stereo not drawn) [Compound B, 3-(4-Chlorophenyl)-5,6,7,8-tetrahydro-4H-cyclohept[d]isoxazole-7-carboxylic acid]
